Molecular target: Macrophage colony-stimulating factor 1 receptor (Homo sapiens, UniProt P07333)
Test: Inhibition of human CSF1R autophosphorylation expressed in HEK293 cells after 1 hr by ELISA
Details: not given

Chain of Macrophage colony-stimulating factor 1 receptor (P07333 whole entry): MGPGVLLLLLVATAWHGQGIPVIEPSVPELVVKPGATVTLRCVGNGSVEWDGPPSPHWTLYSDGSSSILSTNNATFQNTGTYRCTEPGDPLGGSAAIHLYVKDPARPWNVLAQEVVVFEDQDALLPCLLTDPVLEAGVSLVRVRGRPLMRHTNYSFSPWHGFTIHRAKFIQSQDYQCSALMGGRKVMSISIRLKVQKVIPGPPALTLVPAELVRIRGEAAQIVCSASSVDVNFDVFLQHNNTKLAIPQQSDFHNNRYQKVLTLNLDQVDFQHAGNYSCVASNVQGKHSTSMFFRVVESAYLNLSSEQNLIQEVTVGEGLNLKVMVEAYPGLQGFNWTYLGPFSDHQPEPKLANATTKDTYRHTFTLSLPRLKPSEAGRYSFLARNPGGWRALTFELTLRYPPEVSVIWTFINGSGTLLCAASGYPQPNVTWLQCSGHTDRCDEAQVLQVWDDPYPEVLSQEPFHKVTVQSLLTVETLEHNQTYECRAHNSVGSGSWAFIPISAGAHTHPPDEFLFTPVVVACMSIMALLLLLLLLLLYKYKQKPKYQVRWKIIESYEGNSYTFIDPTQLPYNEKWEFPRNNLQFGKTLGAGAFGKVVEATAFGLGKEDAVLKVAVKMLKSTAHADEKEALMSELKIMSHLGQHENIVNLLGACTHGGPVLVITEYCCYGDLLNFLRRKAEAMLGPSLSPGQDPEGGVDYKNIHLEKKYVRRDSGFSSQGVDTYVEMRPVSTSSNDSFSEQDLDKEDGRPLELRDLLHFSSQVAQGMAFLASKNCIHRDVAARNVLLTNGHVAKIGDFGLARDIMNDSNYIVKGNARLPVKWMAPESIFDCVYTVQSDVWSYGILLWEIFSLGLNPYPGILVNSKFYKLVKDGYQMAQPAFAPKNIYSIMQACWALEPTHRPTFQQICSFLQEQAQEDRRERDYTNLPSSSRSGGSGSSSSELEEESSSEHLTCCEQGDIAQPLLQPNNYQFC

`COc1ccc(COc2ncc(Oc3nc(-c4cnn(C)c4)cnc3N)cc2OC)cc1` showed an IC50 of 12 nM.

Molecular target: hERG (KCNH2) (Homo sapiens, UniProt Q12809)
Test: Inhibition of CyB-tagged dofetilide binding to human ERG at 10 uM
Details: probe CyB-tagged dofetilide

Chain of hERG (KCNH2) (Q12809 whole entry): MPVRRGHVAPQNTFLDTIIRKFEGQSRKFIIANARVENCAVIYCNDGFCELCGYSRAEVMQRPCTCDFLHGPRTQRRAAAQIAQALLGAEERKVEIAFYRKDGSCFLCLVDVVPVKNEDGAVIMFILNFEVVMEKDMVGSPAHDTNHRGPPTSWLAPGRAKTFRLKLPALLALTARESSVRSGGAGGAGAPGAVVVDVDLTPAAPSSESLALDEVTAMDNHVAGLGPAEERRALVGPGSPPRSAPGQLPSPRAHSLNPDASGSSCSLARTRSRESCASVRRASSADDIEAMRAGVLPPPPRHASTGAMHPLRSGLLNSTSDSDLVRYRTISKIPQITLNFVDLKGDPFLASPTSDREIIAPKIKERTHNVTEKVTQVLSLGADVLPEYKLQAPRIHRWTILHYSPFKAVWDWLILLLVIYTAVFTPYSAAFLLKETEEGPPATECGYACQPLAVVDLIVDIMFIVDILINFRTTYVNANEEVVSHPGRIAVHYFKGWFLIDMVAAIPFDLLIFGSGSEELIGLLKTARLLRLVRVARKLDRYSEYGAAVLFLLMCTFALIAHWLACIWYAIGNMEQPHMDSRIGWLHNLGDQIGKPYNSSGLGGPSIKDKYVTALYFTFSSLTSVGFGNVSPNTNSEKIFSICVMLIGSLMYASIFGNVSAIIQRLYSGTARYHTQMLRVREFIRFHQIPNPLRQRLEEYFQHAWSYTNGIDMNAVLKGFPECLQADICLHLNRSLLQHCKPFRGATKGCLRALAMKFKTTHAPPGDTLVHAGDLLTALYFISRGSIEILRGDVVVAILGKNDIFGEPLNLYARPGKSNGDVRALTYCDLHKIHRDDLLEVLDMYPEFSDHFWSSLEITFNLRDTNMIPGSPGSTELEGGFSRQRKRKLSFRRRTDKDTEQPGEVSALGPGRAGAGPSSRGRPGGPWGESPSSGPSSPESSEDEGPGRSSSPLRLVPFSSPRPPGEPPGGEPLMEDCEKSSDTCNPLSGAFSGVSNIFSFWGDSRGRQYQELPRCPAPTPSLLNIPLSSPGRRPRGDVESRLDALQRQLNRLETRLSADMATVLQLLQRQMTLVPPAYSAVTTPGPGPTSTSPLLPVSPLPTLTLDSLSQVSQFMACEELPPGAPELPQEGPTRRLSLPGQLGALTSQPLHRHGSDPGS

Point of comparison: `Nc1ncc(-c2ccc(C(=O)N3CCC[C@H]3CN3CCCC3)cc2)nc1NCc1c(Cl)cccc1Cl`, inhibition at 10 µM 78%. Against it:
- Cn1cc(-c2cnc(N)c(OCc3c(Cl)cccc3Cl)n2)cn1 — lower, 7%
- Cn1cc(-c2cnc(N)c(NCc3c(Cl)cccc3Cl)n2)cn1 — lower, 6%
- Cn1cc(-c2cnc(N)c(OCc3ccccc3Cl)n2)cn1 — lower, 7%
- Nc1ncc(-c2ccc(C(=O)N3CCC[C@H]3CN3CCCC3)cc2)nc1OCc1c(Cl)cccc1Cl — higher, 91%
